Where “and” joins values, the source holds several entries; their conditions need not be identical. Identical values can stand only once.
What was measured:
Test in all cases: CTG-3D luminescence at 96 h relative to day-0 seeding control (ratio to day 0); higher = more growth / less cytotoxicity; PDxO 3D drug screen (set 2), 96 h, CTG-3D normalised to day-0 seeding control.
[1] = system: MDA-MB-231
[2] = system: HCI-024 (organoid from a breast cancer xenograft)
[3] = system: HCI-003.E2 (organoid from an ER-positive breast cancer xenograft)
[4] = system: HCI-016 (organoid from a triple-negative breast cancer xenograft)
[5] = system: HCI-023 (organoid from a triple-negative breast cancer xenograft)
[6] = system: HCI-012 (organoid from a breast cancer xenograft)

CO[C@H]1C[C@@H]2CC[C@@H](C)[C@@](O)(O2)C(=O)C(=O)N2CCCC[C@H]2C(=O)O[C@H]([C@H](C)C[C@@H]2CC[C@@H](O)[C@H](OC)C2)CC(=O)[C@H](C)/C=C(\C)[C@@H](O)[C@@H](OC)C(=O)[C@H](C)C[C@H](C)/C=C/C=C/C=C/1C [rapamycin]
CTG-3D luminescence at 96 h
Conditions | 12.5 pM | 0.00025 µM | 0.005 µM | 0.1 µM | 1 µM | 10 µM | 100 µM | 625 fM
[1] | 4.67 | 4.8 | 4.88 | 4.66 | 4.92 | 4.59 | 0.0454 | –
[3] | 1.08 | 1.04 | 0.947 | 0.798 | 1.03 | 0.994 | 0.0195 | 1.32

CTG-3D luminescence at 96 h
Conditions | 12.5 pM | 0.00025 µM | 0.005 µM | 0.1 µM | 1 µM | 10 µM | 100 µM | 625 fM
[2], days in culture: 202 | 1.07 | 1.14 | 0.789 | 1.11 | 0.752 | 1.36 | 0.00983 | 1.53
[2], days in culture: 231 | 1.39 | 1.11 | 1.27 | 0.84 | 0.989 | 0.927 | 0.00464 | 1.06
[2], days in culture: 254 | 1.73 | 0.635 | 1.21 | 0.879 | 0.958 | 1.05 | 0.00976 | 3.42
[4], days in culture: 305 | 1.79 | 1.77 | 1.74 | 4.51 | 1.66 | 1.4 | 0.0174 | 3.16
[4], days in culture: 327 | 0.432 | 0.896 | 2.06 | 1.99 | 0.951 | 1.2 | 0.023 | 0.782
[4], days in culture: 341 | 1.45 | 1.24 | 1.81 | 1.73 | 1.34 | 1.81 | 0.00758 | 1.9
[4], days in culture: 397 | 1.84 | 1.69 | 1.26 | 1.35 | 1.52 | 1.39 | 0.0166 | 1.94
[5], days in culture: 223 | 1.62 | 1.63 | 1.09 | 1.99 | 0.95 | 1.49 | 0.0136 | 2.02
[5], days in culture: 238 | 1.36 | 1.16 | 0.919 | 1.42 | 1.46 | 1.5 | 0.0105 | 1.26
[5], days in culture: 252 | 1.76 | 1.4 | 1.31 | 1.72 | 1.32 | 1.8 | 0.00661 | 1.58
[6], days in culture: 214 | 2.2 | 1.93 | 1.66 | 1.12 | 1.43 | 1.48 | 0.0123 | 1.33
[6], days in culture: 243 | 1.69 | 1.66 | 1.47 | 1.74 | 1.31 | 1.75 | 0.0176 | 1.93
[6], days in culture: 256 | 2.19 | 1.95 | 1.54 | 1.81 | 1.91 | 1.19 | 0.0101 | 2.38
[6], days in culture: 284 | 1.84 | 2.05 | 1.19 | 1.44 | 1.29 | 1.76 | 0.0121 | 3.62

CO[C@H]1C[C@@H]2CC[C@@H](C)[C@@](O)(O2)C(=O)C(=O)N2CCCC[C@H]2C(=O)O[C@H]([C@H](C)C[C@@H]2CC[C@@H](OCCO)[C@H](OC)C2)CC(=O)[C@H](C)/C=C(\C)[C@@H](O)[C@@H](OC)C(=O)[C@H](C)C[C@H](C)/C=C/C=C/C=C/1C [everolimus]
CTG-3D luminescence at 96 h
Conditions | 12.5 pM | 0.00025 µM | 0.005 µM | 0.1 µM | 1 µM | 10 µM | 100 µM | 625 fM
[1] | 5.2 and 4.8 | 5.04 and 4.75 | 4.83 and 4.91 | 4.27 and 4.36 | 3.79 and 3.62 | 3.5 and 2.66 | -0.00539 and -0.00564 | 5.28 and 4.71
[3] | 1.22 | 1.04 | 0.796 | 0.297 | 0.0538 | 0.03 | 0.000105 | 1.67

CTG-3D luminescence at 96 h
Conditions | 12.5 pM | 0.00025 µM | 0.005 µM | 0.1 µM | 1 µM | 10 µM | 100 µM | 625 fM
[2], days in culture: 202 | 0.906 | 1.18 | 0.737 | 1.7 | 1.12 | 1.74 | 0.00395 | 1.12
[2], days in culture: 231 | 0.783 | 1.17 | 0.961 | 1.01 | 0.971 | 1.11 | 0.000185 | 0.943
[2], days in culture: 254 | 2.18 | 0.836 | 1.02 | 1.31 | 1.11 | 1.02 | 0.00153 | 2.4
[4], days in culture: 305 | 1.91 | 2.37 | 1.91 | 2.63 | 1.49 | 1.46 | -0.0112 | 3.94
[4], days in culture: 327 | 0.724 | 1 | 1.4 | 1.68 | 0.673 | 1.5 | -0.00208 | 0.809
[4], days in culture: 341 | 1.86 | 1.39 | 1.69 | 1.34 | 1.18 | 1.47 | -0.00301 | 2.31
[4], days in culture: 397 | 2.02 | 1.53 | 1.5 | 1.31 | 0.567 | 0.757 | -0.000194 | 2.23
[5], days in culture: 223 | 2.04 | 1.82 | 1.17 | 1.19 | 0.991 | 1.28 | -0.00123 | 1.43
[5], days in culture: 238 | 1.22 | 1.01 | 1 | 1.23 | 1.61 | 0.915 | -0.00183 | 1.32
[5], days in culture: 252 | 1.97 | 1.75 | 1.51 | 1.44 | 1.55 | 1.91 | -0.00273 | 1.89
[6], days in culture: 214 | 2.76 | 1.49 | 1.21 | 1.84 | 1.41 | 1.69 | -0.000454 | 2.25
[6], days in culture: 243 | 1.34 | 2.16 | 1.46 | 1.87 | 1.38 | 2.11 | -0.000228 | 1.9
[6], days in culture: 256 | 2.03 | 1.8 | 1.71 | 2.19 | 1.42 | 1.38 | -0.00358 | 1.92
[6], days in culture: 284 | 1.39 | 1.69 | 1.18 | 1.72 | 0.508 | 0.327 | -0.00211 | 2.6

From the supplement of paper PMC8882468
